Reference: patent US10125121B2, “FYN kinase inhibitors” (ROTTAPHARM BIOTECH S.R.L., priority 2015, dated 2018)

Molecular target: active FYN (human recombinant, 62.7 kDa) (Homo sapiens, UniProt P06241)
Assay: In vitro kinase assay (Z′-LYTE FRET)
Assay type: biochemical
Conditions: read-out: IC50(nM) FYN INHIBITION
Method: Assays to determine the kinase inhibitory activity of compounds were performed using an automatic liquid handling device (Microlab STAR Hamilton) and Z′-LYTE™ Kinase Assay Platform, a Fluorescence Resonance Energy Transfer (FRET)-based assay platform compatible with high-throughput screening (HTS) applications. The assay employs a fluorescence-based, coupled-enzyme format and utilizes the differential sensitivity of phosphorylated and non-phosphorylated peptides to proteolytic cleavage.
All reagents were diluted in reaction buffer and the kinase reaction was carried out in a total volume of 10 μl, for 60 minutes at 25° C. The 0% Phosphorylation (i.e. no ATP) and 100% Phosphorylation (i.e. synthetically phosphorylated peptide supplied) Assay Controls, included in each plate, allowed to calculate the percent phosphorylation achieved in the specific reaction well. The 0% Inhibition and 0% Phosphorylation (i.e. 100% Inhibition) Controls define the dynamic range in the screen. At the end of incubation, a secondary reaction (the Development Reaction) started by adding 5 μl of Development Reagent, containing a site-specific protease that recognizes and cleaves non-phosphorylated peptides, and was interrupted after 60 minutes with 5 μl/sample of Stop Reagent.
The compounds were tested in a range of concentrations 10^−6-10^−9 M.
Results are expressed as percentage of inhibition and the IC50 values were calculated by non-linear curve fitting using GraphPad™ Prism software.

Sequence of active FYN (human recombinant, 62.7 kDa) (P06241 whole entry): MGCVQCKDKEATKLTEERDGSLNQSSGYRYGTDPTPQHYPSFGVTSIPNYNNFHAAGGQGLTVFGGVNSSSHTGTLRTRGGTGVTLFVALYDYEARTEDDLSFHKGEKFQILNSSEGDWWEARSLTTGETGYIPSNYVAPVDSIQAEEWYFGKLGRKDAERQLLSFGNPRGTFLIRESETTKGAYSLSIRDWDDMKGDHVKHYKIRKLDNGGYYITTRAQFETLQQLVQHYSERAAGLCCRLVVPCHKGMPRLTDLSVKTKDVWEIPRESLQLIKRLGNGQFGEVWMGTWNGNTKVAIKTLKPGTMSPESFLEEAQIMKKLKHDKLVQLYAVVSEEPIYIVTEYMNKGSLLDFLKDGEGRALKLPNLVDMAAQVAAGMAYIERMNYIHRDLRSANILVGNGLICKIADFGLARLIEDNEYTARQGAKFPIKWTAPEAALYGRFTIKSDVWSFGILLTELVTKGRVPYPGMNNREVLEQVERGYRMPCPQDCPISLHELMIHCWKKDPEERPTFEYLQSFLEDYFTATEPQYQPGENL

SMILES | IC50 [nM]
O=C(Nc1ccc(CN2CCN(c3nccc(Nc4cc(C5CC5)[nH]n4)n3)CC2)cc1)c1ccccn1 [Compound 24, N-(4-((4-(4-((5-cyclopropyl-1H-pyrazol-3-yl)amino)pyrimidin-2-yl)piperazin-1-yl)methyl)phenyl)picolinamide] | 1100
O=C(Nc1ccc(CN2CCN(c3nccc(Nc4cc(C5CC5)[nH]n4)n3)CC2)nn1)c1ccccc1C(F)(F)F [Compound 42, N-(6-((4-(4-((5-cyclopropyl-1H-pyrazol-3-yl)amino)pyrimidin-2-yl)piperazin-1-yl)methyl)pyridazin-3-yl)-2-(trifluoromethyl)benzamide] | 663
O=C(Nc1ccc(CN2CCN(c3nccc(Nc4nnc(C5CC5)o4)n3)CC2)cc1)c1ccccc1C(F)(F)F [Compound 44, N-(4-((4-(4-((5-cyclopropyl-1,3,4-oxadiazol-2-yl)amino)pyrimidin-2-yl)piperazin-1-yl)methyl)phenyl)-2-(trifluoromethyl)benzamide] | > 1000
O=C(Nc1cccc(C(F)(F)F)c1)c1ccc(CN2CCN(c3nccc(Nc4cc(C5CC5)[nH]n4)n3)CC2)cc1 [Compound 38, 4-((4-(4-((5-cyclopropyl-1H-pyrazol-3-yl)amino)pyrimidin-2-yl)piperazin-1-yl)methyl)-N-(3-(trifluoromethyl)-phenyl)benzamide] | > 1000
COc1ccnc(Nc2ccnc(N3CCN(Cc4ccc(NC(=O)c5ccccc5C(F)(F)F)cc4)CC3)n2)c1 [Compound 45, N-(4-((4-(4-((4-methoxypyridin-2-yl)amino)pyrimidin-2-yl)piperazin-1-yl)methyl)phenyl)-2-(trifluoromethyl)benzamide] | 441
Cn1ccnc1C(=O)Nc1ccc(CN2CCN(c3nccc(Nc4cc(C5CC5)[nH]n4)n3)CC2)cc1 [Compound 34, N-(4-((4-(4-((5-cyclopropyl-1H-pyrazol-3-yl)amino)pyrimidin-2-yl)piperazin-1-yl)methyl)phenyl)-1-methyl-1H-imidazole-2-carboxamide] | 1450
O=C(Nc1ccc(CN2CCN(c3nccc(Nc4cc(C5CC5)[nH]n4)n3)CC2)cc1)c1cccc(C(F)(F)F)c1 [Compound 9, N-(4-((4-(4-((5-cyclopropyl-1H-pyrazol-3-yl)amino)pyrimidin-2-yl)piperazin-1-yl)methyl)phenyl)-3-(trifluoromethyl)benzamide] | > 1000
O=C(Nc1ccc(C(F)(F)F)cc1)c1ccc(CN2CCN(c3nccc(Nc4cc(C5CC5)[nH]n4)n3)CC2)cc1 [Compound 39, 4-((4-(4-((5-cyclopropyl-1H-pyrazol-3-yl)amino)pyrimidin-2-yl)piperazin-1-yl)methyl)-N-(4-(trifluoromethyl)phenyl)-benzamide] | > 1000
Cc1nc(C(=O)Nc2ccc(CN3CCN(c4nccc(Nc5cc(C6CC6)[nH]n5)n4)CC3)nc2)c(C(F)(F)F)o1 [Compound 22, N-(6-((4-(4-((5-cyclopropyl-1H-pyrazol-3-yl)amino)pyrimidin-2-yl)piperazin-1-yl)methyl)pyridin-3-yl)-2-methyl-5-(trifluoromethyl)oxazole-4-carboxamide] | 424
C[C@H]1CN(c2nccc(Nc3cc(C4CC4)[nH]n3)n2)CCN1Cc1ccc(NC(=O)c2cccnc2C(F)(F)F)cc1 [Compound 31, (S)-N-(4-((4-(4-((5-cyclopropyl-1H-pyrazol-3-yl)amino)pyrimidin-2-yl)-2-methyl-piperazin-1-yl)methyl)phenyl)-2-(trifluoromethyl)nicotinamide] | 667
COc1cc(C)ccc1C(=O)Nc1ccc(CN2CCN(c3nccc(Nc4cc(C5CC5)[nH]n4)n3)CC2)cc1 [Compound 15, N-(4-((4-(4-((5-cyclopropyl-1H-pyrazol-3-yl)amino)pyrimidin-2-yl)piperazin-1-yl)methyl)phenyl)-2-methoxy-4-methyl benzamide] | 220

Now those with a lower IC50, led by results:

IC50 [nM] | SMILES
180 | C[C@@H]1CN(c2nccc(Nc3cc(C4CC4)[nH]n3)n2)CCN1Cc1ccc(NC(=O)c2cccnc2C(F)(F)F)cc1 [Compound 30, (R)-N-(4-((4-(4-((5-cyclopropyl-1H-pyrazol-3-yl)amino)pyrimidin-2-yl)-2-methylpiperazin-1-yl)methyl)phenyl)-2-(trifluoromethyl)nicotinamide]
105 | Cc1cccnc1C(=O)Nc1ccc(CN2CCN(c3nccc(Nc4cc(C5CC5)[nH]n4)n3)CC2)cc1 [Compound 25, N-(4-((4-(4-((5-cyclopropyl-1H-pyrazol-3-yl)amino)pyrimidin-2-yl)piperazin-1-yl)methyl)phenyl)-3-methyl-picolinamide]
96 | O=C(Nc1ccc(CN2CCN(c3nccc(Nc4cc(C5CC5)[nH]n4)n3)CC2)cc1)c1ccccc1 [Compound 1, N-(4-((4-(4-((5-cyclopropyl-1H-pyrazol-3-yl)amino)pyrimidin-2-yl)piperazin-1-yl)methyl)phenyl)benzamide]
89 | CC(C)c1ccccc1C(=O)Nc1ccc(CN2CCN(c3nccc(Nc4cc(C5CC5)[nH]n4)n3)CC2)cc1 [Compound 6, N-(4-((4-(4-((5-cyclopropyl-1H-pyrazol-3-yl)amino)pyrimidin-2-yl)piperazin-1-yl)methyl)phenyl)-2-isopropylbenzamide]
74 | Cn1cc(C(=O)Nc2ccc(CN3CCN(c4nccc(Nc5cc(C6CC6)[nH]n5)n4)CC3)cc2)c(C(F)(F)F)n1 [Compound 33, N-(4-((4-(4-((5-cyclopropyl-1H-pyrazol-3-yl)amino)pyrimidin-2-yl)piperazin-1-yl)-methyl)phenyl)-1-methyl-3-(trifluoromethyl)-1H-pyrazole-4-carboxamide]
70 | O=C(Nc1ccc(CN2CCN(c3nccc(Nc4cc(C5CC5)[nH]n4)n3)CC2)cc1)c1ccccc1F [Compound 3, N-(4-((4-(4-((5-cyclopropyl-1H-pyrazol-3-yl)amino)pyrimidin-2-yl)piperazin-1-yl)methyl)phenyl)-2-fluorobenzamide]
69 | O=C(Nc1ccc(CN2CCN(c3nccc(Nc4cc(C5CC5)[nH]n4)n3)CC2)cc1)NC1CCCC1 [Compound 49, 1-cyclopentyl-3-(4-((4-(4-((3-cyclopropyl-1H-pyrazol-5-yl)amino)pyrimidin-2-yl)piperazin-1-yl)methyl)phenyl)urea]
41 | Cc1cc(Nc2ccnc(N3CCN(Cc4ccc(NC(=O)c5ccccc5C(F)(F)F)cc4)CC3)n2)[nH]n1 [Compound 47, N-(4-((4-(4-((3-methyl-1H-pyrazol-5-yl)amino)pyrimidin-2-yl)piperazin-1-yl)methyl)phenyl)-2-(trifluoromethyl)benzamide]
29 | Cc1cc(Nc2cc(C3CC3)n[nH]2)nc(N2CCN(Cc3ccc(NC(=O)c4ccccc4C(F)(F)F)cc3)CC2)n1 [Compound 46, N-(4-((4-(4-((5-cyclopropyl-1H-pyrazol-3-yl)amino)-6-methylpyrimidin-2-yl)piperazin-1-yl)methyl)phenyl)-2-(trifluoromethyl)benzamide]
23 | O=C(Nc1ccc(CN2CCN(c3nccc(Nc4cc(C5CC5)[nH]n4)n3)CC2)cc1)c1ccccc1Cl [Compound 5, 2-chloro-N-(4-((4-(4-((5-cyclopropyl-1H-pyrazol-3-yl)amino)pyrimidin-2-yl)piperazin-1-yl)methyl)phenyl)benzamide]
